Molecules are shown by their SMILES.

One test has as its target T1, Human TRPC6 (Homo sapiens, UniProt Q9Y210).
T1 construct: expressed in transfected cells
T1 sequence (Q9Y210 1-931): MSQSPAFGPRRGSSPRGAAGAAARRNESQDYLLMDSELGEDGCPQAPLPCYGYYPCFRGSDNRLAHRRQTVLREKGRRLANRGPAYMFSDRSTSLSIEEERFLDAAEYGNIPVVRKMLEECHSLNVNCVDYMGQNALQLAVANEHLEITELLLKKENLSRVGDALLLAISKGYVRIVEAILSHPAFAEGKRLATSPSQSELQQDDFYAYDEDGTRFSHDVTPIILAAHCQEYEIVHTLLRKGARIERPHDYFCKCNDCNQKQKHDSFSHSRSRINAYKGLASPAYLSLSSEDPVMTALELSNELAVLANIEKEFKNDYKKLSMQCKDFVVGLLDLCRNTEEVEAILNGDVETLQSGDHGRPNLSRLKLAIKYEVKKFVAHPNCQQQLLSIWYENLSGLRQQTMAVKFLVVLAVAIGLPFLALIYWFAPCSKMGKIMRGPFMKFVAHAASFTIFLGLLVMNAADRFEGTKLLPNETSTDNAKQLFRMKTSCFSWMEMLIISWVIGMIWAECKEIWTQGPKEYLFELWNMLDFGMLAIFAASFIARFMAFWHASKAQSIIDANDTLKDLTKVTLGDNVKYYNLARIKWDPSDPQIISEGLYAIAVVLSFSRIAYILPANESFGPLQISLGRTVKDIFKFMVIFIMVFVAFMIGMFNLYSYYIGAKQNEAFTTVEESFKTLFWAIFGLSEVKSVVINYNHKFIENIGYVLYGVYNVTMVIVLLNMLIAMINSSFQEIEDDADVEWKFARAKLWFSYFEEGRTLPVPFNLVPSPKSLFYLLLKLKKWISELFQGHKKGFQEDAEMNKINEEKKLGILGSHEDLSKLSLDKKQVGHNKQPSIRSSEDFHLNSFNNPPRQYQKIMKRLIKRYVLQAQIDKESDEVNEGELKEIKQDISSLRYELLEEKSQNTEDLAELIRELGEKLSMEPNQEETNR
The experiment in a line: Evaluation of TRPC6 channel inhibitory activity (1), FLIPR Calcium 5 Assay Kit, OAG stimulation (Compound Nos. 1-1293). It counts as cell-based.
Conditions: not given
The procedure, abridged: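 Cells stably expressing human TRPC6, plated 24 h before, were loaded 30 min with Calcium 5 dye plus probenecid in HEPES-HBSS. Compound was added 20 min before OAG (30 μM final) and fluorescence tracked on FLIPR. Inhibition normalised to no-compound and no-compound/no-OAG wells; pIC50 from four-parameter fit, reported as +/++/+++ categories.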
`Cc1nc(Oc2cc(C#N)ccc2-c2ncc(CCN)cn2)cc(N2C3CCC2CC3)n1` [compound 671, 4-[5-(2-aminoethyl)pyrimidin-2-yl]-3-[6-(7-azabicyclo[2.2.1]heptan-7-yl)-2-methylpyrimidin-4-yl]oxybenzonitrile]: the IC50 is less than 10 nM.

The test is the same for the next values; noted with them: Human TRPC6 stably-expressing cells, OAG 30 μM, FLIPR Calcium 5 Assay Kit; read-out: Inhibitory activity (pIC50 class) (converted).
With `Cn1nc(-c2ccccc2)cc1Oc1cc(Cl)ncc1-c1ccc(CCN)cn1` [compound 1290, 2-[6-[6-chloro-4-(2-methyl-5-phenylpyrazol-3-yl)oxypyridin-3-yl]pyridin-3-yl]ethanamine], the IC50 is 10 to 1000 nM. Consider `Cc1cc(Oc2cc(C#N)ccc2-c2ccc(C3OCCCC3N)cn2)cc(N2CCOCC2)n1` (centres unmarked) [compound 539, 4-[5-(3-aminooxan-2-yl)pyridin-2-yl]-3-(2-methyl-6-morpholin-4-ylpyridin-4-yl)oxybenzonitrile], for which the IC50 was 10 to 1000 nM. Same read-out and setting: in the case of `Cc1nc(Oc2cc(C#N)ccc2-n2cc([C@@H](O)CN)cn2)cc(N2CCC(C(C)C)CC2)n1` [Compound 234, 4-[4-[(1R)-2-amino-1-hydroxyethyl]pyrazol-1-yl]-3-[2-methyl-6-(4-propan-2-ylpiperidin-1-yl)pyrimidin-4-yl]oxybenzonitrile] it was greater than 1000 nM; in that of `CN(C)c1cc(Oc2cc(C#N)ccc2-c2ncc([C@@H](F)CN)cn2)n(C)n1` [compound 906, 4-[5-[(1R)-2-amino-1-fluoroethyl]pyrimidin-2-yl]-3-[5-(dimethylamino)-2-methylpyrazol-3-yl]oxybenzonitrile], less than 10 nM; in that of `CCCc1cc(Oc2cc(C#N)ccc2-c2ccc(CCN)cn2)n(C)n1` [Compound 230, 4-[5-(2-aminoethyl)pyridin-2-yl]-3-(2-methyl-5-propylpyrazol-3-yl)oxybenzonitrile], less than 10 nM. For the molecule `CCC(N)c1cnc(-c2ccc(C#N)cc2Oc2cc(-c3ccccn3)nn2C)nc1` (centres unmarked) [compound 734, 4-[5-(1-aminopropyl)pyrimidin-2-yl]-3-(2-methyl-5-pyridin-2-ylpyrazol-3-yl)oxybenzonitrile], the IC50 was less than 10 nM.

For `Cc1nc(Oc2cc(C#N)ccc2-c2ncc(CN)cn2)cc(OC(C)C)n1` [compound 896, 4-[5-(aminomethyl)pyrimidin-2-yl]-3-(2-methyl-6-propan-2-yloxypyrimidin-4-yl)oxybenzonitrile], the IC50 is 10 to 1000 nM. The same measure, in the same setting: with `Cc1cc(Oc2cc(C#N)ccc2-c2ncc(CCN)cn2)cc(-c2nccs2)n1` [compound 595, 4-[5-(2-aminoethyl)pyrimidin-2-yl]-3-[2-methyl-6-(1,3-thiazol-2-yl)pyridin-4-yl]oxybenzonitrile] the figure was 10 to 1000 nM; with `Cn1nc(-c2ccccn2)cc1Cc1cc(C#N)ccc1-c1ncc(CN)cn1` [compound 1205, 4-[5-(aminomethyl)pyrimidin-2-yl]-3-[(2-methyl-5-pyridin-2-ylpyrazol-3-yl)methyl]benzonitrile], less than 10 nM. For the molecule `Cn1nc2c(c1Oc1cc(C#N)ccc1-c1ncc(CN)cn1)CCCC2` [compound 684, 4-[5-(aminomethyl)pyrimidin-2-yl]-3-[(2-methyl-4,5.6,7-tetrahydroindazol-3-yl)oxy]benzonitrile], the IC50 is greater than 1000 nM. On the same count and under the same terms, in the case of `N#Cc1ccc(-c2ccc(CCN)cc2)c(Oc2cnnc(-c3ccccc3OC(F)(F)F)c2)c1` [Compound 117, 4-[4-(2-aminoethyl)phenyl]-3-[6-[2-(trifluoromethoxy)phenyl]pyridazin-4-yl]oxybenzonitrile] it was 10 to 1000 nM; in that of `CC(C)c1cc(Oc2cc(F)ccc2-c2ncc(CCN)cn2)n(C)n1` [compound 1013, 2-[2-[4-fluoro-2-(2-methyl-5-propan-2-ylpyrazol-3-yl)oxyphenyl]pyrimidin-5-yl]ethanamine], less than 10 nM; in that of `COCCN(C)c1cc(Oc2cc(C#N)ccc2-c2ncc(CN)cn2)n(C)n1` [compound 798, 4-[5-(aminomethyl)pyrimidin-2-yl]-3-[5-[2-methoxyethyl(methyl)amino]-2-methylpyrazol-3-yl]oxybenzonitrile], 10 to 1000 nM.

Consider `Cc1nc(OCC(C)C)cc(Oc2cc(C#N)ccc2-c2ncc(CN)cn2)n1` [compound 846, 4-[5-(aminomethyl)pyrimidin-2-yl]-3-[2-methyl-6-(2-methylpropoxy)pyrimidin-4-yl]oxybenzonitrile], for which the IC50 is 10 to 1000 nM. With `Cc1nn(CC2CC2)cc1C(=O)c1cc(C#N)ccc1-c1ncc(CN)cn1` [compound 1035, 4-[5-(aminomethyl)pyrimidin-2-yl]-3-[1-(cyclopropylmethyl)-3-methylpyrazole-4-carbonyl]benzonitrile], the IC50 was less than 10 nM.

For the molecule `Cn1nc(C2CC2)cc1Oc1cc(C#N)ccc1-c1ccc(CN)n2cnnc12` [compound 641, 4-[5-(aminomethyl)-[1,2,4]triazolo[4,3-a]pyridin-8-yl]-3-(5-cyclopropyl-2-methylpyrazol-3-yl)oxybenzonitrile], the IC50 is 10 to 1000 nM. `Cc1nc(C(F)(F)F)cn1Cc1cc(C#N)ccc1-c1ncc(CCN)cn1` [compound 1173, 4-[5-(2-aminoethyl)pyrimidin-2-yl]-3-[[2-methyl-4-(trifluoromethyl)imidazol-1-yl]methyl]benzonitrile]: the IC50 was less than 10 nM.

Turning to `Cc1ccccc1-c1cn(Cc2cc(C#N)ccc2-c2ccc(CCN)cn2)cn1` [compound 1145, 4-[5-(2-aminoethyl)pyridin-2-yl]-3-[[4-(2-methylphenyl)imidazol-1-yl]methyl]benzonitrile], the IC50 is less than 10 nM.

In the case of `Cc1nc(Oc2cc(C#N)ccc2-c2ccc(CC3(N)COC3)cn2)cc(N2CCC(F)CC2)n1` [compound 667, 4-[5-[(3-aminooxetan-3-yl)methyl]pyridin-2-yl]-3-[6-(4-fluoropiperidin-1-yl)-2-methylpyrimidin-4-yl]oxybenzonitrile], the IC50 was 10 to 1000 nM. In the case of `Cc1nc(Oc2cc(C#N)ccc2-c2nc([C@H](O)CN)cs2)cc(-c2ccccc2)n1` [Compound 223, 4-[4-[(1R)-2-amino-1-hydroxyethyl]-1,3-thiazol-2-yl]-3-(2-methyl-6-phenylpyrimidin-4-yl)oxybenzonitrile], the IC50 was 10 to 1000 nM.

Regarding `Cn1nc(-c2ccccn2)cc1Oc1cc(C#N)ccc1-c1ccc(CN)n2ccnc12` [compound 522, 4-[5-(aminomethyl)imidazo[1,2-a]pyridin-8-yl]-3-(2-methyl-5-pyridin-2-ylpyrazol-3-yl)oxybenzonitrile], the IC50 is less than 10 nM. `Cn1nc(-c2ccccn2)cc1Oc1cc(C#N)ccc1-c1cc(CCN)ccn1` [compound 587, 4-[4-(2-aminoethyl)pyridin-2-yl]-3-(2-methyl-5-pyridin-2-ylpyrazol-3-yl)oxybenzonitrile]: the IC50 is less than 10 nM. For `Cc1cc(Oc2cc(C#N)ccc2-c2ccc(C(N)C(=O)O)cn2)cc(N2CCOCC2)n1` (centres unmarked) [compound 410, 2-amino-2-[6-[4-cyano-2-(2-methyl-6-morpholin-4-ylpyridin-4-yl)oxyphenyl]pyridin-3-yl]acetic acid], the IC50 is 10 to 1000 nM. For the molecule `N#Cc1ccc(-c2ccc(CCN)cn2)c(Sc2cnnc(N3CCCC3)c2)c1` [compound 1244, 4-[5-(2-aminoethyl)pyridin-2-yl]-3-(6-pyrrolidin-1-ylpyridazin-4-yl)sulfanylbenzonitrile], the IC50 is less than 10 nM. As to `Cn1nc(-c2ccccn2)cc1Oc1cc(C#N)ccc1-c1ccc(CCN)nc1` [Compound 162, 4-[6-(2-aminoethyl)pyridin-3-yl]-3-(2-methyl-5-pyridin-2-ylpyrazol-3-yl)oxybenzonitrile], the IC50 is less than 10 nM. For the molecule `Cc1cc(Oc2cc(C#N)ccc2-c2ccc(N3CC[C@H](N)C3=O)cn2)cc(N2CCOCC2)n1` [compound 565, 4-[5-[(3S)-3-amino-2-oxopyrrolidin-1-yl]pyridin-2-yl]-3-(2-methyl-6-morpholin-4-ylpyridin-4-yl)oxybenzonitrile], the IC50 was greater than 1000 nM. As to `Cc1nc(Oc2cc(C#N)ccc2-c2ncc([C@H](O)CN)cn2)cc(N2C[C@@H](C)O[C@@H](C)C2)n1` [compound 524, 4-[5-[(1S)-2-amino-1-hydroxyethyl]pyrimidin-2-yl]-3-[6-[(2S,6R)-2,6-dimethylmorpholin-4-yl]-2-methylpyrimidin-4-yl]oxybenzonitrile], the IC50 is 10 to 1000 nM.

With `Cc1c(Oc2cc(C#N)ccc2-c2ncc(CCN)cn2)cnn1CC(F)F` [compound 925, 4-[5-(2-aminoethyl)pyrimidin-2-yl]-3-[1-(2,2-difluoroethyl)-5-methylpyrazol-4-yl]oxybenzonitrile], the IC50 was greater than 1000 nM.

Values taken from US20230167073A1 (Teijin Pharma Limited, priority 2020, published 2023).
